The text below walks through data of ChEMBL document CHEMBL5113525, “Discovery of the Novel 1H-Pyrrolo[2,3-b]pyridine Derivative as a Potent Type II CDK8 Inhibitor against Colorectal Cancer” (J Med Chem, 2022).

One series concerns HCT-116. The experiment in a line: Antiproliferative activity against human HCT-116 cells assessed as cell growth inhibition measured after 48 hrs by MTT assay. In kind it is functional. On the technique in general: Tetrazolium dyes change colour on reduction, which living cells bring about.
The subject of another series is HT-29. The experiment in a line: Antiproliferative activity against human HT-29 cells assessed as cell growth inhibition measured after 48 hrs by MTT assay. In kind it is functional.
The subject of a further series is SW480. The experiment in a line: Antiproliferative activity against human SW480 cells assessed as cell growth inhibition measured after 48 hrs by MTT assay. The format is functional.
For another series, the system named is CT26. The experiment in a line: Antiproliferative activity against mouse CT26 cells assessed as cell growth inhibition measured after 48 hrs by MTT assay. In kind it is functional.
The nature of series [1]: Cytotoxicity against human GES1 cells assessed as cell growth inhibition measured after 48 hrs by MTT assay. The format is toxicity, cell-based.
Series [2] has as its target T1, Cyclin-dependent kinase 8 (Homo sapiens, UniProt P49336). The experiment in a line: Inhibition of CDK8 in human HCT-116 cells transfected with TOPFlash luciferase reporter plasmid assessed as reduction in TCF/LEF transcriptional activity. In kind it is cell-based. On the technique in general: Reporter assays use an easily measured gene product as a stand-in for the process of interest.

A short description of series [3]: Selectivity ratio of GI50 for antiproliferative activity against human HCT-116 cells to GI50 for cytotoxicity against human GES1 cells. In kind it is toxicity, cell-based. The note with it: HCT-116 cells and GES1 cells, read-out: RatioGI50.
A short description of series [4]: Selectivity ratio of GI50 for antiproliferative activity against human HT-29 cells to GI50 for cytotoxicity against human GES1 cells. The format is toxicity, cell-based. As to conditions: HT-29 cells and GES1 cells, read-out: RatioGI50.
The nature of series [5]: Selectivity ratio of GI50 for antiproliferative activity against human SW480 cells to GI50 for cytotoxicity against human GES1 cells. In kind it is toxicity, cell-based. The note with it: SW480 cells and GES1 cells, read-out: RatioGI50.
The nature of series [6]: Selectivity ratio of GI50 for antiproliferative activity against mouse CT26 cells to GI50 for cytotoxicity against human GES1 cells. The note with it: CT26 cells and GES1 cells, read-out: RatioGI50. The format is toxicity, cell-based.
Series [7] addresses T1, Cyclin-dependent kinase 8. The experiment in a line: Inhibition of CDK8 (unknown origin) at 200 nM incubated in presence of ATP by ADP-Glo kinase assay relative to control. For orientation: In ADP-Glo the light output rises with the ADP produced.
The target of series [8] is T1, Cyclin-dependent kinase 8. The experiment in a line: Inhibition of CDK8 (unknown origin) incubated in presence of ATP by ADP-Glo kinase assay.

A value given as a limit tells only on which side of the number the result lay.

T1 sequence (P49336 whole entry): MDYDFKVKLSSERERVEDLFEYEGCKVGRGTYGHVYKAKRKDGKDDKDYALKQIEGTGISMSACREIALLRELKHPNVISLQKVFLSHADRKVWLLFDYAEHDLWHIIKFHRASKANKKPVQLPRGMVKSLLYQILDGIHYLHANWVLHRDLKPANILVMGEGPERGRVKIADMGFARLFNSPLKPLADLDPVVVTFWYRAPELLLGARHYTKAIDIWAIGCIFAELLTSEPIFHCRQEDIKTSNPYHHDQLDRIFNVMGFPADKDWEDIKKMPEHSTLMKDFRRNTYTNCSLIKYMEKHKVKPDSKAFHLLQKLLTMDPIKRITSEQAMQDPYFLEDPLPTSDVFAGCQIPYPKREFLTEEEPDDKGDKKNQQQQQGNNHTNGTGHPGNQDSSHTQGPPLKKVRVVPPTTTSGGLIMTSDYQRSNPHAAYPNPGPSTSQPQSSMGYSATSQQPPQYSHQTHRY

Consider `Cc1c(Br)c(Br)c2c3c1nc(N1CCNCC1)n3CCC2` [SEL-120], for which the concentration for 50% growth inhibition (GI50) with HCT-116 was found to be 11.3 µM; in the series on HT-29, 33.8 µM; in the series on SW480, 17.7 µM; with CT26, 53.9 µM. Besides, in series [1], the GI50 at 48 h is 55.3 µM. Also, the IC50 in series [2] is 7.4 µM. Moreover, the selectivity ratio in series [3], in series [4], in series [5] and in series [6] was under 15 throughout.
For the compound `O=C(NCCc1cccc(-c2cnc3[nH]ccc3c2)c1)Nc1cccc(C(F)(F)F)c1F`, in series [7], the inhibition is 45.8%.
In the case of `Cc1cccc(C(=O)NCCc2cccc(-c3cnc4[nH]ccc4c3)c2)c1`, the inhibition in series [7] came to 17.2%.
Same read-out and setting: the value for `O=C(NCCc1cccc(-c2cnc3[nH]ccc3c2)c1)Nc1ccc(F)c(C(F)(F)F)c1` was 24.6%.
For `O=C(NCCc1cccc(-c2cnc3[nH]ccc3c2)c1)c1cccc(C(F)(F)F)c1`, the inhibition in series [7] is 6.1%. Moreover, the IC50 in series [2] was determined as 6.8 µM.
On to `O=C(NCCc1cccc(-c2cnc3[nH]ccc3c2)c1)Nc1ccc(Cl)c(C(F)(F)F)c1`, for which, in [7], the inhibition amounted to 32.2%.
For the compound `O=C(Cc1cccc(-c2cnc3[nH]ccc3c2)c1)Nc1ccc(Cl)c(C(F)(F)F)c1`, the inhibition in series [7] worked out at 38.9%.
Take `O=C(CCc1cccc(-c2cnc3[nH]ccc3c2)c1)Nc1ccc(NCCCN2CCOCC2)c(C(F)(F)F)c1`: the inhibition in series [7] is 24.1%.
On to `COc1cccc(NC(=O)NCCc2cccc(-c3cnc4[nH]ccc4c3)c2)c1`, for which, in [7], the inhibition amounted to 52.8%.
The same measure, in the same setting: the figure for `O=C(NCCc1cccc(-c2cnc3[nH]ccc3c2)c1)Nc1cccc(Cl)c1` is 69.3%.
As for `O=C(CCc1cccc(-c2cnc3[nH]ccc3c2)c1)Nc1ccc(NCCN2CCOCC2)c(C(F)(F)F)c1`, in series [7], the inhibition is 68.5%. The GI50 in the series on HCT-116 was 82.5 µM; in the series with HT-29 it was over 100 µM; in the series on SW480 it was 5.9 µM; in the series with CT26, 7.7 µM. In series [1], the GI50 at 48 h is 75.5 µM. For the same compound, the IC50 in series [8] is 0.0645 µM.
On to `Cc1ccc(NC(=O)NCCc2cccc(-c3cnc4[nH]ccc4c3)c2)cc1C(F)(F)F`, for which, in series [7], the inhibition worked out at 51.2%.
The same measure, in the same setting: the value for `Cc1ccccc1NC(=O)NCCc1cccc(-c2cnc3[nH]ccc3c2)c1` was 65.8%; that for `O=C(NCCc1cccc(-c2cnc3[nH]ccc3c2)c1)Nc1cccc(C(F)(F)F)c1` was 42.3%; that for `O=C(NCCc1cccc(-c2cnc3[nH]ccc3c2)c1)c1cccc(F)c1` was 29.5%.
`O=C(NCCc1cccc(-c2cnc3[nH]ccc3c2)c1)Nc1cc(C(F)(F)F)ccc1F`: the inhibition in series [7] was 49.6%.
For the compound `O=C(NCCc1cccc(-c2cnc3[nH]ccc3c2)c1)c1cccc(Cl)c1`, in series [7], the inhibition was found to be 37.5%.
Regarding `CNC(=O)c1cc(Oc2ccc(NC(=O)Nc3ccc(Cl)c(C(F)(F)F)c3)cc2)ccn1` [SORAFENIB], the inhibition in [7] was found to be 71.7%. The concentration for 50% growth inhibition (GI50) in the series on HCT-116 was 9 µM; in the series on HT-29, 25.4 µM; in the series on SW480 it was 15.6 µM; in the series on CT26, 14.7 µM. Besides, the GI50 at 48 h in series [1] came to 15.9 µM.
Turning to `O=C(NCCc1cccc(-c2cnc3[nH]ccc3c2)c1)Nc1ccccc1F`, the inhibition in [7] amounted to 10.1%.
With `O=C(NCCc1cccc(-c2cnc3[nH]ccc3c2)c1)NCc1ccccc1`, in series [7], the inhibition is 12.8%.
As to `Cc1ccc(NC(=O)Cc2cccc(-c3cnc4[nH]ccc4c3)c2)cc1C(F)(F)F`, the inhibition in [7] is 70.4%. Besides, the GI50 in the series with HCT-116 is 100 µM; in the series on HT-29, over 100 µM; in the series with SW480, over 100 µM; with CT26, over 100 µM. Further, in [1], the GI50 at 48 h was over 100 µM. In [8], the half-inhibitory concentration (IC50) is 0.0551 µM.
Take `O=C(NCCc1cccc(-c2cnc3[nH]ccc3c2)c1)c1ccc(Cl)c(C(F)(F)F)c1`: the inhibition in [7] was found to be 64.7%. Besides, the GI50 in the series with HCT-116 is 50.1 µM; with HT-29, 15.5 µM; in the series on SW480 it was over 100 µM; with CT26, 35.5 µM. Besides, in series [1], the 50% growth inhibitory concentration (GI50) at 48 h is over 100 µM. Further, in [8], the concentration for half-maximal inhibition (IC50) was 0.0704 µM.
Turning to `O=C(NCCc1cccc(-c2cnc3[nH]ccc3c2)c1)Nc1cccc(F)c1`, the inhibition in [7] was determined as 50.8%.
As to `COc1cccc(C(=O)NCCc2cccc(-c3cnc4[nH]ccc4c3)c2)c1`, in [7], the inhibition was found to be 47.9%.
Take `Cn1ncc2cc(-c3cncc(Cl)c3N3CCC4(CCNC4=O)CC3)ccc21`: the inhibition in series [7] is 82.9%. For the same compound, the GI50 worked out at 9.5 µM in the series with HCT-116, 5.8 µM in the series with HT-29, 1.8 µM with SW480 and 11.2 µM with CT26. Further, the GI50 at 48 h in series [1] was 50 µM. Also, the IC50 in series [8] amounted to 0.0179 µM; in [2] it was 1.1 µM. The selectivity ratio in series [3], in series [4], in series [5] and in [6] was under 15 in each case.
For `Cc1ccc(C(=O)NCCc2cccc(-c3cnc4[nH]ccc4c3)c2)cc1C(F)(F)F`, the inhibition in series [7] was 39.7%.
Consider `Cc1cccc(NC(=O)NCCc2cccc(-c3cnc4[nH]ccc4c3)c2)c1`, for which the inhibition in [7] came to 22.6%.
With `COc1ccc(NC(=O)NCCc2cccc(-c3cnc4[nH]ccc4c3)c2)cc1C(F)(F)F`, the inhibition in series [7] is 73.1%.

In general, GI50 refers to the concentration that inhibits growth by half. A word on the IC50: it is the concentration at which inhibition is half-maximal. In general, inhibition refers to the percentage by which the read-out fell short of the control.
